According to patent publication EP0414895A1, “OROTATE OF $g(a)-AMINO-$g(b)-PHENYL-BUTYRIC ACID” (NAUCHNO-PROIZVODSTVENNOE OBIEDINENIE "BIOLAR", priority 1989, dated 1990):
Structures can show the parent of a compound that is named as a salt.

How the values were obtained:
[1] = system: Mäuse; experiment: Thresholds of emotional reactivity and aggressiveness on electric pain stimulation, mice; assay type: in vivo
From the text: Es wurde auch die emotionelle Aktivität und Aggressivität der Tiere auf dem Wege der elektrischen Schmerzreizung untersucht.
In einer Kammer von 20 x 20 x 25 cm Ausmass, deren Boden - ein Metallgitter aus Stangen darstellt, wurde ein Paar Tiere untergebracht (männliche Mäuse) und es wurde der Wechselstrom durchgelassen. Die Spannung wurde dosenartig auf 5 V solange erhöht, bis der Strom das Piepsen (die Schwelle der emotionellen Reaktivität) und die Schlägerei der Tiere (die Schwelle der Aggressivität) auslöste. Jede Spannungsgrösse wurde innerhalb von 5 sec zweimal in einem Zeitabstand von 20 bis 50 Sekunden aufrechterhalten. Die Kontrolle des Benehmens der Tiere begann man I0 Minuten nach der Einführung der oben erwähnten Verbindungen. Die Angaben sind in Tabellen 3, 4 angeführt.

[2] = system: Ratten; experiment: Thresholds of emotional reactivity and aggressiveness on electric pain stimulation, rats; assay type: in vivo
[3] = system: Mäuse; experiment: Conflict situation (punished water intake); assay type: in vivo; conditions: 45 to 120 min before test
From the text: Es wurde auch die Wirkung der erfindungsgemässen Verbindung unter Bedingungen einer Konfliktsituation an männlichen Mäusen (Gruppe aus I0 Mäusen) untersucht. Vorläufig wurde den Mäusen das Wasser für 48 Stunden entzogen, danach wurden ihnen 45 bis I20 Minuten vor dem Versuch die Verbindungen intraperitoneal eingeführt und die Tiere wurden in der Kammer untergebracht, wo sich eine Wassertränke befand. Im Augenblick der Wassereinnahme bekam es einen elektrischen Schlag, der am Zähler registriert wurde. In der Prüfkammer befand sich das Tier innerhalb von 3 Minuten. Für diese Zeit wurden die Zahl der Wassereinnahmen sowie die Lazenzperiode - die Zeit zwischen dem Unterbringen des Tiers in der Kammer und der ersten Wassereinnahme - registriert. Die durchschnittlichen Angaben sind in der Tabelle 5 angeführt.

[4] = system: Mäuse; experiment: Habituation study: motor activity in actometer on repeated dosing; assay type: in vivo
Description: (§1) Zur Untersuchung der Gewöhnung an die Wirkung der erfindungsgemässen Verbindung wurde die Dynamik der Benehmungseffekte an Mäusen beiderlei Geschlechts untersucht. In jeder Gruppe waren je I2 bis I8 Tiere. Die erfindungsgemässe Verbindung und γ -Amino- β - -phenylbuttersäurehydrochlorid wurden intraperitoneal in Dosen von 75 mg/kg bzw. 48 mg/kg zweimal am Tag eingeführt. Es wurden die Körpermasse, der Einfluss auf die motorische Aktivität (im Aktometer) und auf die emotionelle Reaktivität aud dem Wege der elektrischen Schmerzreizung untersucht. Die Tiere wurden innerhalb von 15 bis 20 Tagen untersucht. […] Der sedative Effekt der beanspruchten Verbindung war während der ganzen Versuchsperiode aufrechterhalten (Tabelle 7).

[5] = Habituation study: body mass; assay type: in vivo, Mäuse; conditions: 75 mg/kg bzw. 48 mg/kg i.p. twice daily, 15 to 20 days
Description: as §1

[6] = system: Mäuse; experiment: Hypoxia by subcutaneous Natriumnitroprussid, survival, mice; assay type: in vivo
Description: (§2) Die […] Hypoxie wurde durch die subkutane Einführung von Natriumnitroprussid in einer Dosis von 20 mg/kg den Gruppen von Mäusen und Ratten zu I0 Stück in der Gruppe erzeugt. Natriumnitroprussid wurde 60 min nach der Einführung der Prüfverbindungen verabreicht. Die Angaben sind in Tabelle I5 (für Mäuse) und I6 (für Ratten) angeführt.

[7] = system: Ratten; experiment: Hypoxia by subcutaneous Natriumnitroprussid, survival, rats; assay type: in vivo; conditions: Natriumnitroprussid 20 mg/kg s.c.
Description: as §2

[8] = system: Ratten; experiment: Swimming test at 2°C, rats; assay type: in vivo
From the text: (§3) Der Einfluss der beanspruchten Verbindung auf die physische Toleranz der Tiere wurde nach dem Schwimmtest der Mäuse und Ratten untersucht. Die Versuche wurden in einer Wanne von […] Fläche durchgeführt. Die Tiergruppe (8 bis I0 Mäuse oder Ratten) wurde ins Wasser gebracht und es wurde die Zeit der Schwimmfähigkeit bestimmt. Die neue Verbindung und γ -Amino- β - -phenylbuttersäurehydrochlorid wurden enteral und intraperitoneal I Stunde oder 3 Stunden vor dem Schwimmbeginn eingeführt. Die Untersuchung wurde sowohl nach der einmaligen als auch nach der chronischen (innerhalb von 20 Tagen einmal täglich) Einführung der genannten Verbindungen durchgeführt. Die Versuche wurden bei 3 Temperaturen angestellt: 2°C (Tabelle I7), 25°C (Tabelle I8) und 40°C (Tabelle I9).

[9] = system: Mäuse; experiment: Swimming test at 40°C; assay type: in vivo; conditions: for Schwimmzeit: 40°C
From the text: as §3

[10] = system: Ratten; experiment: Cold stress at 2°C, rectal temperature, rats; assay type: in vivo; conditions: for Rektaltemperatur nach I Stunde an der Kälte: 2°C; for Rektaltemperatur nach I Stunde: 1 h after dosing at room temperature
Description: Aus den in Tabellen angeführten Ergebnissen ist zu ersehen, dass die einmalige Einführung der neuen Verbindung die Schwimmdauer der Mäuse und Ratten wesentlich nicht beeinflusst. Nach der 20 Tage langen chronischen Einführung der neuen Verbindung wird die Schwimmdauer hingegen zuverlässig grösser - (Tabelle I7) um das I,5fache im kalten Wasser und um das 2,5fache bei einer Temperatur von 40°C (Tabelle I9) im Vergleich zu γ -Amino- β -phenylbuttersäurehydrochlorid. Auf diese Weise erhöht die chronische Einführung der neuen Verbindung wesentlich die physische Toleranz der Tiere. Ausserdem wurde auch die Toleranz der Tiere gegen den Kältestress bestimmt. Die Untersuchung wurde bei einer Temperatur von 2°C an Mäusen und Ratten durchgeführt, indem jedes Tier abgesondert in der Einzelkammer von I5 x 20 x 20 cm Ausmass untergebracht wurde. Es wurde die Rektaltemperatur vor der Einführung der neuen Verbindung, des γ -Amino- β - phenylbuttersäurehydrochlorids und der physiologischen Kontrollösung eine Stunde nach der Einführung bei Zimmertemperatur und nach I Stunde und 2 Stunden in der Kälte gemessen. Die Versuche wurden an einer Mäusengruppe (I0 Stück) (Tabelle 20) und an einer Rattengruppe (8 Stück) (Tabelle 2I) bei der einmaligen und chronischen Einführung innerhalb von 22 bzw. I6 Tagen einmal pro Tag angestellt.

[11] = system: Mäuse; experiment: Natriumäthaminal intoxication, sleep duration, mice; assay type: in vivo
Description: (§4) Ausserdem wurde die Wirkung der beanspruchten Verbindung auf die durch Natriumäthaminal erzeugte Intoxikation untersucht. Die Versuche wurden an männlichen Mäusen und Ratten in Gruppen zu 8 bis I0 Tieren angestellt. Natriumäthaminal wurde intraperitoneal in einner Dosis von I00 mg/kg I5 min nach der enteralen Verabreichung der beanspruchten Verbindung oder der Kontrollarzneimittel eingeführt. Es wurde die einmalige und chronische Einwirkung (während I2 bis I4 Tage einmal täglich) von der neuen Verbindung, γ -Amino- β - -phenylbuttersäurehydrochlorid und Pyrazetam untersucht. Es wurde die Dauer der Seitenlage - des Schlafs der Tiere bestimmt. Die Ergebnisse dieser Untersuchung sind in Tabelle 23 (für Mäuse) und 24 (für Ratten) angeführt.

[12] = system: Ratten; experiment: Natriumäthaminal intoxication, sleep duration, rats; assay type: in vivo
Description: as §4

[13] = 50 mg/kg chronic, 14 days + Natriumäthaminal 100 mg/kg i.p.
[14] = 50 mg/kg single + Natriumäthaminal 100 mg/kg i.p.

## NCC(CC(=O)O)c1ccccc1 (stereo not drawn) [γ-Amino-β-phenylbutter-säurehydrochlorid, γ -Amino- β -phenylbuttersäurehydrochlorid, reference compound]
[1]; 100 mg/kg
  Spannung in V, Schwelle der emotionellen Reaktivität: 24,2±0,8 V
[2]; 80,0 mg/kg
  Spannung in V, die Schwelle der Aggressivität: 44,6±0,6 V
[3]; 16 mg/kg i.p.
  Latenzperiode: 36,4±6,8 sec
[4]; day 1, 48 mg/kg i.p. twice daily
  Anzahl der Impulse im Aktometer innerhalb von 45 min: 75±19
[4]; day 5, 48 mg/kg i.p. twice daily
  Anzahl der Impulse im Aktometer innerhalb von 45 min: 223±36
[4]; day 10, 48 mg/kg i.p. twice daily
  Anzahl der Impulse im Aktometer innerhalb von 45 min: 257±38
[4]; day 15, 48 mg/kg i.p. twice daily
  Anzahl der Impulse im Aktometer innerhalb von 45 min: 283±47
[5]
  Körpermasse: veränderte sich wesentlich nicht
[6]; Natriumnitroprussid 20 mg/kg s.c., 35 mg/kg chronic, 10 days once daily
  Überlebensdauer: 515,6±34 sec
[7]; 35 mg/kg chronic, 10 days once daily
  Überlebensdauer: 876,6±90 sec
[7]; 35 mg/kg single
  Überlebensdauer: 1359,0±100 sec
[8]; 35 mg/kg chronic, 20 days
  Schwimmzeit, Ratten: 328,8±34
[8]; 35 mg/kg single
  Schwimmzeit, Ratten: 304,3±29
[9]; 35 mg/kg chronic, 20 days
  Schwimmzeit: 58±7,2 min
[9]; 35 mg/kg single
  Schwimmzeit: 37,8±8 min
[10]; 35 mg/kg chronic, 16 days
  Rektaltemperatur nach I Stunde an der Kälte: 23,2±0,2
  Rektaltemperatur nach I Stunde: 30,4±0,3
[11]; 35 mg/kg chronic, 12 days + Natriumäthaminal 100 mg/kg i.p.
  Schlafdauer: 390,0±37 min
[11]; 35 mg/kg single + Natriumäthaminal 100 mg/kg i.p.
  Schlafdauer: 274,3±32 min
[12]; [13]
  Schlafdauer: 290,0±17 min
[12]; [14]
  Schlafdauer: 288,6±27 min

## γ -Amino- β -phenylbuttersäureorotat [Erfindungsgemässe Verbindung]
[1]; 37 mg/kg
  Spannung in V, Schwelle der Agressivität: 29,8±2,4 V
[2]; 20,0 mg/kg
  Spannung in V, die Schwelle der emotionnellen Reaktivität: 23,4±0,8 V
[2]; 40,0 mg/kg
  Spannung in V, die Schwelle der emotionnellen Reaktivität: 27,6±0,4 V
[2]; 60,0 mg/kg
  Spannung in V, die Schwelle der Aggressivität: 44,8±0,6 V
[2]; 150,0 mg/kg
  Spannung in V, die Schwelle der emotionnellen Reaktivität: 34,2±2,2 V
[3]; 25 mg/kg i.p.
  Anzahl der Wassereinnahmen für 3 Minuten: 5,6±0,7
  Latenzperiode: 52,4±20 sec
[4]; day 1, 75 mg/kg i.p. twice daily
  Anzahl der Impulse im Aktometer innerhalb von 45 min: 125±25
[4]; day 5, 75 mg/kg i.p. twice daily
  Anzahl der Impulse im Aktometer innerhalb von 45 min: 108±21
[4]; day 10, 75 mg/kg i.p. twice daily
  Anzahl der Impulse im Aktometer innerhalb von 45 min: 109±47
[4]; day 15, 75 mg/kg i.p. twice daily
  Anzahl der Impulse im Aktometer innerhalb von 45 min: 123±17
[5]
  Körpermasse: veränderte sich wesentlich nicht
[6]; Natriumnitroprussid 20 mg/kg s.c. 60 min after compound, 50 mg/kg single
  Überlebensdauer: 740,3±68 sec
[6]; Natriumnitroprussid 20 mg/kg s.c., 50 mg/kg chronic, 10 days once daily
  Überlebensdauer: 1083,7±80 sec
[7]; 50 mg/kg chronic, 10 days once daily
  Überlebensdauer: 1133,0±54 sec
[7]; 50 mg/kg single
  Überlebensdauer: 1247,0±94 sec
[8]; 30 mg/kg chronic, 20 days
  Schwimmzeit, Ratten: 390,0±56
[9]; 50 mg/kg single
  Schwimmzeit: 57,6±5,6 min
[9]; after 20 days chronic administration, Tabelle I9, compared with γ-Amino-β-phenylbuttersäurehydrochlorid as worded
  Schwimmdauer grösser um das ...fache bei einer Temperatur von 40°C: 2,5 fache
[10]; 50 mg/kg chronic, 16 days
  Rektaltemperatur vor der Einführung der Verbindung: 30,7±0,2
  Rektaltemperatur nach I Stunde an der Kälte: 27,0±0,3
[10]; 50 mg/kg single
  Rektaltemperatur vor der Einführung der Verbindung: 30,4±0,3
  Rektaltemperatur nach I Stunde: 30,9±0,3
[11]; 50 mg/kg chronic, 12 days + Natriumäthaminal 100 mg/kg i.p.
  Schlafdauer: 178,4±14 min
[11]; [14]
  Schlafdauer: 261,3±21 min
[12]; 25 mg/kg single + Natriumäthaminal 100 mg/kg i.p.
  Schlafdauer: 314,8±22 min
[12]; [13]
  Schlafdauer: 167,4±23 min
[12]; [14]
  Schlafdauer: 306,4±16 min
